Substitutions are numbered along the chain they refer to. Numbers in names are those of the source. Some results are limits rather than exact numbers.

Data set [1] is described as follows: Abiotic escape of anisole from M9 minimal media overnight. Format: physicochemical. The settings on record: 2 mM anisole in M9 minimal media, flasks.
The next data set concerns P. putida KT2440. The data set can be described thus: Toxicity analysis: growth of P. putida KT2440 at different phenol and anisole concentrations. As for the experimental part: (§1) P. putida and E. coli cultures were incubated at 30° C. and 37° C. respectively. For cloning purposes, both strains were propagated in Lysogeny Broth (LB) medium containing 10 g/L NaCl, 10 g/L tryptone, and 5 g/L yeast extract. For the preparation of solid media, 1.5% (w/v) agar was added. […] All growth experiments were performed using M9 minimal medium (per Liter; 3.88 g K2HPO4, 1.63 g NaH2PO4, 2.0 g (NH4)2SO4, pH 7.0. The M9 media was supplemented with a trace elements solution (10 mg/L ethylenediaminetetraacetic acid (EDTA), 0.1 g/L MgCl2 6 H2O, 2 mg/L ZnSO4·7H2O, 1 mg/L CaCl2)·2H2O, 5 mg/L FeSO4·7 H2O, 0.2 mg/L Na2MoO4·2H2O, 0.2 mg/L CuSO4·5H2O, 0.4 mg/L CoCl2·6H2O, 1 mg/L MnCl2·2H2O). In these experiments, strains were precultured in 10 mL LB with corresponding antibiotics. Then, the cultures were washed twice in M9 media without a carbon source. Finally, the cultures were diluted to an OD600 of 0.1 to start the experiment. In all plate reader experiments, a glucose concentration of 10 mM was used. […] Plate reader experiments were carried out in 200 μL of M9 medium using an ELx808 plate reader (BioTek). Growth (OD600) was measured over time using continuous shaking and measurements were taken every three minutes. Flask experiments were performed in 250 mL Erlenmeyer flasks filled with 25 mL of M9 minimal medium containing 50 mM of glucose. […] The cultures were incubated in a rotary shaker at 200 rpm at 30° C.
The production of aromatic compounds often comes with unwanted toxicity. One way of circumventing this is the utilization of microbial hosts with high tolerance towards aromatic compounds (Li et al., 2020. Biotechnol Adv 41: 107548).
The presence of phenolic hydroxyl groups has been associated with the inhibition of microbial enzymes and the damage of the bacterial membrane (Miklasinska-Majdanik et al., 2018. Int J Environ Res Public Health 15: 2321).

A short description of data set [2]: Anisole capture at different dodecane ratios, 24 h flasks. Format: physicochemical. The settings on record: 30° C., 250 rpm. As for the experimental part:
An additional experiment was performed to determine the optimal ratio of the two phases. Ratios of 0%, 5%, 15%, 30%, 50%, and 100% dodecane were tested in a total volume of 25 ml. […] Next, dodecane was added to the flasks according to the predetermined ratios. Flasks were incubated for 24 h at 30° C. and 250 rpm to simulate P. putida KT2440 growth. After incubation, samples were collected separately from each phase and concentrations were measured using HPLC. […] After 24 hours, samples containing the organic phase from 5% and 15% dodecane flasks captured on average 19.42% and 39.57% of the initial concentration of anisole, respectively. […] Flasks containing 30% dodecane, extracted approximately 75% of the anisole which was further increased to nearly 95% flasks with a 50% ratio.

The nature of data set [3]: Distribution of anisole and phenol between water and organic solvent after 1 h. The settings on record: 1 mM in water, equal volume of dodecane, ethyl acetate, isopropyl myristate or tributyrin. Format: physicochemical. As for the experimental part:
A main bottleneck when producing anisole is its volatility. To overcome this problem an organic solvent can be used in biphasic fermentation to quantify volatile or insoluble products in water, allowing their recovery. To enable in situ anisole extraction, we tested four organic solvents: dodecane, ethyl acetate, isopropyl myristate, and tributyrin. […] Next, 0.9 ml of the stock solution was mixed with an equal volume of one of the selected solvents in an Eppendorf tube.
Therefore, dodecane was chosen as the solvent for anisole extraction.

Data set [4] relates to phenol. The data set can be described thus: Phenol consumption and anisole production by P. putida KT2440 expressing CVOMT1. Format: cell-based, Pseudomonas putida. To be noted: 50 mM glucose, 1 mM phenol. As for the experimental part: as §1
Data set [5] has as its system phenol. In words: Growth-coupled methyltransferase selection in CM-Aux. Format: cell-based, Pseudomonas putida. An excerpt: This design relies on the conversion of methionine into cysteine through the intermediate homocysteine with the aid of a SAM-dependent methyltransferase. Exogenously added methionine is converted into SAM, which would subsequently be converted into S-adenosyl-l-homocysteine (SAH) by CVOMT1 (FIG. 8C). Then, SAH is converted into homocysteine and subsequently into cysteine by reverse trans-sulfuration restoring growth in the process.
Next, an aim was set to install the reverse trans-sulfuration module which will convert homocysteine to the amino acid cysteine. This is a two-step process, catalyzed by the enzymes cystathionine-β-synthase and cystathionine-γ-lyase. The C-module was created by cloning the cystathionine-β-synthase (Cys) from S. cerevisiae and the cystathionine-γ-lyase (PA) from Pseudomonas aeruginosa on a pSEVAb62 backbone. The CM-Aux strain was equipped with the C-module and growth of the strain in minimal media was assessed. In all cases, growth could only occur upon the expression of the C-module. This module converts homocysteine to […], and if active, produces cysteine, restoring growth (FIG. 8A). […]
Next, an aim was set to examine the anisole production rate of POMT1 compared to CVOMT1. […] Samples were taken at time zero only from the medium and then after 24 hours from both phases and analyzed at the HPLC.

Data set [6] relates to phenol. In words: Phenol consumption and anisole production, CVOMT1 vs POMT1 in P. putida KT2440 with 50% dodecane. It is filed as cell-based, Pseudomonas putida. The settings on record: for anisole produced, maximum / phenol consumed: 50 mM glucose, 1 mM phenol, 1 mM methionine, 50% dodecane; for phenol consumed: 24 hours. As for the experimental part: Cell growth was determined by measuring the optical density at 600 nm (OD600) using an OD600 DiluPhotometer spectrophotometer (IMPLEN) or a Synergy plate reader (BioTek Instruments). Analysis of glucose in supernatants was performed using high-performance liquid chromatography (HPLC) (Thermo Fisher Scientific) equipped with an Aminex HPX-87H column. The mobile phase was 5 mM of H2SO4 at a flow rate of 0.6 mL/min, the column temperatures were held at 60° C. and the compounds were detected using a Shodex RI-101 detector (Shodex). […] The mobile phase consisted of Milli-Q water (A), 100 mM formic acid (B) and acetonitrile (C) with a flow rate of 1 mL/min at 30° C. Chromatographic separation of analytes was attained using the following gradient program: t=0-5 min: A-55%, B-10% and C-35% from t=5-10 min ramp to A-10%, B-10% and C-80% and held until 15 min. Then from t=15-16 min, the gradient was returned to A-55%, B-10% and C-35% and maintained isocratic for a total run time of 18 min. For quantification, calibration curves were prepared using pure standards (purity) purchased from Sigma-Aldrich.
Next, an aim was set to examine the anisole production rate of POMT1 compared to CVOMT1. […] An initial sample was taken and hereafter 50% dodecane was added. Cells were then incubated overnight at 30° C. and 250 rpm. Samples were taken at time zero only from the medium and then after 24 hours from both phases and analyzed at the HPLC.

Consider `COc1ccccc1` [anisole], for which, in data set [1], the “anisole disappeared from media” value is 89%. Besides, the effect on growth result in the data set on P. putida KT2440 is given as “did not show any detrimental effects on growth”. In data set [2] (0% dodecane), the “anisole in water phase” value is “almost undetectable”. Moreover, the “anisole captured in organic phase, of initial concentration” value was 19.42% in data set [2] (5% dodecane) and 39.57% in data set [2] (15% dodecane). Further, the anisole extracted result in data set [2] (30% dodecane) is given as “approximately 75%”; in data set [2] (50% dodecane), roughly 95%. Besides, in data set [3], the “capture of anisole by organic solvents” value is “successfully captured”.

Regarding `Oc1ccccc1` [phenol], in the data set on P. putida KT2440 (growth of P. putida KT2440), the “concentration up to which growth rates did not deviate” value is on record as “up to 2 mM”; the “concentration with detrimental effect on growth rate and final cell density” value was no less than 3000 µM; the “phenol concentration the strain was able to withstand” value is recorded as “up to 5 mM”.

B1: CVOMT1: chavicol O-methyltransferase (EC 2.1.1.146) from Ocimum basilicum, SEQ ID NO:1 (protein, listed as Ocimum basilicum)
chain: MALQNMDISLSTEQLLQAQAHVWNHMYAFANSMSLKCAIQLGIPDILHKHDHPMTLSQLLKAIPINKEKSQSFQRLMRALVNSNFFIEENSNNQEVCYWLTPASRLLLKGAPLTVAPLVQVVLDPTFTNPWHYMSEWFKHENHATQFEAANGCTFWEKLANKPSMGRFFDEAMSCDSRLVAHVLTKDYKHVIDGIRTLVDVGGGNGTMAKAIVEAVPTMKCTVLDLPHVVAGLESTDKLSYIGGDMFQSIPSADAILLKFIIHDWDDEEGLKILKRCKDAVGIGGKVIIIDVVVGVNHDVDEVLEDQLHFDMAMMSYFNAKERTMNEWEKLISAAGFTSYKLTPAFGVRSLIEAYP
In the case of B1, the “anisole yield of the converted phenol” value in the data set with phenol [4] (1 mM methionine added) was found to be 15.5 % mol/mol. Besides, in the data set on phenol [4] (no methionine), the anisole detection entry is on record as “no anisole was detected”. In addition, the phenol consumed with phenol [4] (no methionine, 24 hours) was 0.12 mM. Also, in the data set with phenol [5] (CM-Aux with C- and A-module, phenol and methionine added (1 mM)), the doubling time is 1.8 h. For the same molecule, in the data set with phenol [6], the “anisole produced, maximum” value stood at 0.06 mM and the phenol consumed is reported as 0.23 mM.

B2: POMT1: evolved phenol O-methyltransferase, SEQ ID NO:1 with D264N alteration (SEQ ID NO:3) (protein)
chain: B1 chain with D264N
In the case of B2, the “phenol concentration at which maximum growth rate is reached” value in the data set with phenol [5] (CM-Aux, 1 mM methionine, different phenol concentrations) is on record as 0.2 mM. In the data set with phenol [6], the “increase in anisole concentration compared to wild-type enzyme” value is 2.33 fold; the “anisole produced, maximum” value stood at 0.14 mM; the phenol consumed is reported as 0.38 mM. For the same molecule, in the data set with phenol [6] (within 24 hours), the “phenol consumption more than CVOMT1” value was 65%.

Values taken from patent US20260250721A1, “Biological Anisole Production” (Wageningen Universiteit, priority 2023, published 2026).
